From publication PMC8554203, “Inhibition of Bromodomain and Extra Terminal (BET) Domain Activity Modulates the IL-23R/IL-17 Axis and Suppresses Acute Graft-Versus-Host Disease” (Frontiers in Oncology, 2021) come the findings set out here.

Each structure is given as a SMILES string. Like-named read-outs stand apart in the source and are kept apart here.

In one assay the target is T1, BRD4 (Homo sapiens, UniProt O60885).
T1 construct: BRD4-BD12 (engineered protein containing both bromodomains)
Description: substrate binding (displacement) assay with engineered tandem bromodomain protein. To be noted: read-out: PLX2853 / IC50 (μM) ^a.

For another assay, the target named is T2, BRD2 (Homo sapiens, UniProt P25440).
T2 construct: BRD2-BD12 (engineered protein containing both bromodomains)
T2 sequence (P25440 74-453 limits assumed): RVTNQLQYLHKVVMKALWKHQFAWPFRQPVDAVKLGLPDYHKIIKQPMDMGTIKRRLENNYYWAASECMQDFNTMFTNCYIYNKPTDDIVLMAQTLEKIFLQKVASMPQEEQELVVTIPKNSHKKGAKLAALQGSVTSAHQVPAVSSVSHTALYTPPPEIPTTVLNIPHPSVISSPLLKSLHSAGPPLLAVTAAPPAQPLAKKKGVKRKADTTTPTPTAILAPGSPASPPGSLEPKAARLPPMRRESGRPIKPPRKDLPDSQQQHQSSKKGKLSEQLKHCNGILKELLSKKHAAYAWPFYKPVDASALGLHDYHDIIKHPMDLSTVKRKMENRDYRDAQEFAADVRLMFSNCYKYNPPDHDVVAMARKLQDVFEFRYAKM
The assay is described as above.

As to `Cc1noc(C)c1-c1cnc2c(-c3ccc(C(=O)O)cc3)cn(C(C)(c3ccccn3)c3ccccn3)c2c1` [PLX2853], the figures for the IC50 at BRD4 and on BRD2 (read-out: PLX2853 / IC50 (μM) ^a) were 0.0043 µM and 0.0073 µM, respectively. On to `Cc1noc(C)c1-c1cnc2c(-c3ccc(C(=O)O)cc3)cn([C@@H](C)c3ccccn3)c2c1` [PLX51107], for which the IC50 on BRD2 was 0.052 µM.
